Patent US20050049294A1, “Methods of using [3.2.0] heterocyclic compounds and analogs thereof” (priority 2003, published 2005)
Read-outs that look alike come from different tables or passages of the source.

How the values were obtained:
U266 cells = assay: Cell growth inhibition (resazurin, 48 hours), U266
[1] = biological target: T1, chymotrypsin-like activity of rabbit muscle 20S proteasomes (Oryctolagus cuniculus, UniProt G1T4Q9); assay: Inhibition of chymotrypsin-like activity of purified rabbit muscle 20S proteasome (suc-LLVY-AMC); assay type: biochemical
T1 sequence (G1T4Q9 1-263): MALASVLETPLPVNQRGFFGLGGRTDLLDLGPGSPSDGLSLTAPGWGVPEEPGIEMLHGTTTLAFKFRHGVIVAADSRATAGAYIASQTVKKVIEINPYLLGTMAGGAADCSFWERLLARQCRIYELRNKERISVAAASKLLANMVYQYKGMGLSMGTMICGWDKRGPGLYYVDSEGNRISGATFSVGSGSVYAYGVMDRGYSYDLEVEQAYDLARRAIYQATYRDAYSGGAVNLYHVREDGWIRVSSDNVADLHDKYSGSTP
Experimental: This peptide substrate is specific for the chymotrypsin-like enzyme activity of the proteasome.
Omuralide was prepared as a 10 mM stock in DMSO and stored in 5 μL aliquots at −80° C. […] The assay measures the hydrolysis of Suc-LLVY-AMC into Suc-LLVY and AMC. The released coumarin (AMC) was measured fluorometrically by using λex=390 nm and λem=460 nm. The assays were performed in a microtiter plate (Corning 3904), and followed kinetically with measurements every five minutes. The instrument used was a Thermo Lab Systems Fluoroskan, with the incubation chamber set to 37° C. The assays were performed according to the manufacturer's protocol, with the following changes. The proteasome was activated as described with SDS, and held on ice prior to the assay. […] Ten microliters of each dose were added in triplicate to the assay plate, and 190 μL of the activated proteasome was added and mixed. The samples were pre-incubated in the Fluoroskan for 5 minutes at 37° C. Substrate was added and the kinetics of AMC were followed for one hour.

PC-3 cells = assay: Cell growth inhibition (resazurin, 48 hours), PC-3; assay type: cell-based, human; conditions: Homo sapiens, PC-3
[2] = biological target: PGPH (caspase-like) activity of rabbit muscle 20S proteasomes (Oryctolagus cuniculus, UniProt A0A5F9DQW2); assay: Inhibition of caspase-like (PGPH) activity of 20S proteasome (Z-LLE-AMC); assay type: biochemical; conditions: Table 3; mean EC50; purified rabbit 20S proteasomes
PGPH (caspase-like) activity of rabbit muscle 20S proteasomes, sequence (A0A5F9DQW2 1-212): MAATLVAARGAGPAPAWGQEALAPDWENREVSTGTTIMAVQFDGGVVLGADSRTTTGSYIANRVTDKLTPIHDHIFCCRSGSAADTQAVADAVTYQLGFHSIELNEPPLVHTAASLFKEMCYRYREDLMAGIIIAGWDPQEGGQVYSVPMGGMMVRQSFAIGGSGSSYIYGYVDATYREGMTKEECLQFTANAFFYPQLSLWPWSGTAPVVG
Experimental: A commercially available fluorogenic substrate specific for the PGPH activity was used instead of the chymotrypsin substrate supplied in the proteasome assay kit described above.
The substrate Z-LLE-AMC was prepared as a 20 mM stock solution in DMSO, stored at −20° C. The source of the proteasomes was the commercially available kit from Calbiochem (Cat. #539158). As with the chymotrypsin substrate, the proteasome can cleave Z-LLE-AMC into Z-LLE and free AMC. The activity can then be determined by measuring the fluorescence of the released AMC (λex=390 nm and λem=460 nm). The proteasomes were activated with SDS and held on ice as per manufacturer's recommendation. […] The series was diluted 20-fold with assay buffer and preincubated with the proteasomes as described for the chymotrypsin-like activity. After addition of substrate, the samples were incubated at 37° C., and release of the fluorescent AMC was monitored in a fluorimeter. All data were collected and plotted as the mean of triplicate points. […] As before, the model chosen was a sigmoidal dose-response, with a variable slope.

[3] = system: NF-κB-mediated luciferase activity in HEK293 NF-κB/Luc cells; assay: NF-κB-mediated luciferase reporter gene assay; assay type: cell-based, human; conditions: for luciferase activity upon TNF-α stimulation: pretreatment of NF-κB/Luc 293 cells
Experimental: (§1) The HEK293 NF-κB/luciferase reporter cell line is a derivative of the human embryonic kidney cell line (ATCC; CRL- 1573) and carries a luciferase reporter gene under the regulation of 5×NF-κB binding sites. […] When performing the luciferase assay, the DMEM basal medium was replaced with phenol-red free DMEM basal medium and the G418 was omitted.
For NF-κB-mediated luciferase assays, HEK293 NF-κB/luciferase cells were seeded at 1.5×10^4 cells/well in 90 μl phenol-red free DMEM complete medium into Corning 3917 white opaque-bottom tissue culture plates. […] This dilution series was further diluted 40× in appropriate culture medium and ten μl aliquots were added to the test wells in triplicate resulting in final test concentrations ranging from 1 μM to 320 pM. […] For Formula II-19, a 127 μM starting dilution was made in 100% DMSO and the final test concentrations ranging from 317 nM to 0.1 nM. […] After 1 hr pretreatment, 10 μl of a 50 ng/ml TNF-α solution, prepared in the phenol-red free DMEM medium was added, and the plates were incubated for an additional 6 hr.
NF-κB inducible luciferase activity was measured at 6 hours.
as §1, with “CRL-1573)” for “CRL- 1573)”
For NF-κB-mediated luciferase assays, HEK293 NF-κB/luciferase cells were seeded at 1.5×10^4 cells/well in 90 μl phenol-red free DMEM complete medium into Corning 3917 white opaque-bottom tissue culture plates. For Formula II-2, Formula II-4 and Formula II-5A, a 400 μM starting dilution was made in 100% DMSO and this dilution was used to generate a 8-point half log dilution series. This dilution series was further diluted 40× in appropriate culture medium and ten μl aliquots were added to the test wells in triplicate resulting in final test concentrations ranging from 1 μM to 320 pM. […] After 1 hr pretreatment, 10 μl of a 50 ng/ml TNF-α solution, prepared in the phenol-red free DMEM medium was added, and the plates were incubated for an additional 6 hr.
The relative luciferase units (RLU) were measured by using a Fusion microplate fluorometer (Packard Bioscience).

[4] = biological target: T2, trypsin-like activity of purified rabbit 20S proteasomes (Oryctolagus cuniculus, UniProt G1SWK8); assay: biochemical
T2 sequence (G1SWK8 1-271): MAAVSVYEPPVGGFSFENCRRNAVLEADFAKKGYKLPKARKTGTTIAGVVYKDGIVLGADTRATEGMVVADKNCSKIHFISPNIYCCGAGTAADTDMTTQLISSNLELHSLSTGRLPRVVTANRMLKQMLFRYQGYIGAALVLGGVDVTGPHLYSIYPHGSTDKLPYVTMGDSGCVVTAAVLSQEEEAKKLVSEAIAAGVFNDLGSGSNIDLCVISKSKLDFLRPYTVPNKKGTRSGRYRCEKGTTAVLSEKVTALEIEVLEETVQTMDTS

HT-29 cells = assay: Cell growth inhibition (resazurin, 48 hours), HT-29; assay type: cell-based; conditions: Homo sapiens, HT-29
NCI-H292 cells = assay: Cell growth inhibition (resazurin, 48 hours), NCI-H292; assay type: cell-based, human; conditions: Homo sapiens, NCI-H292
RPMI 8226 cells = assay: Cell growth inhibition (resazurin, 48 hours), RPMI 8226
MDA-MB-231 cells = assay: Cell growth inhibition (resazurin, 48 hours), MDA-MB-231; assay type: cell-based; conditions: Homo sapiens, MDA-MB-231
[5] = system: LeTx-induced cytotoxicity of RAW264.7 cells; assay: cells; conditions: Mus musculus, RAW264.7, read-out: EC50 (nM), inhibition of RAW 264.7 cell cytotoxicity mediated by anthrax lethal toxin
[6] = biological target: T2, trypsin-like activity of purified rabbit 20S proteasomes; conditions: under the conditions tested
MES-SA cells = assay: Cell growth inhibition (resazurin, 48 hours), MES-SA
MES-SA/Dx5 cells = assay: cells
[7] = Homo sapiens, U-266, Table 13, U266
[8] = Homo sapiens, U-266, read-out: U266 EC50 (nM), Table 15, mean EC50
[9] = Table 3, mean EC50, purified rabbit 20S proteasomes, read-out: EC50 Values, Chymotrypsin-like
[10] = Homo sapiens, RPMI-8226, Table 13, RPMI 8226
[11] = Homo sapiens, RPMI-8226, read-out: RPMI 8226 EC50 (nM), Table 15, mean EC50

## C[C@@]12OC(=O)[C@]1([C@@H](O)[C@H]1CCC[C@@H]3O[C@H]13)NC(=O)[C@@H]2CCCl [Formula II-5B]
U266 cells; [7]
  EC50: 118 nM
U266 cells; [8]
  EC50: 115 nM
U266 cells; Table 13, U266
  EC50: 111 nM
[1]; [9]
  EC50: 0.087 µM
[1]; representative experiment, Example 44 (FIG. 46, 47), read-out: EC50, chymotrypsin-like activity of the proteasome
  EC50: 0.088 µM
PC-3 cells; Table 13, read-out: EC50
  EC50: 1.33 µM
[2]
  EC50: 3.3 µM
[3]; Homo sapiens, HEK293, representative experiment, Example 43 (FIG. 44, 45), read-out: calculated EC50 to inhibit NF-κB inducible luciferase activity
  EC50: 0.261 µM
[3]
  luciferase activity upon TNF-α stimulation: dose-dependent decrease
[4]
  EC50: 0.739 µM
HT-29 cells; Table 13, read-out: EC50
  EC50: 1.07 µM
NCI-H292 cells; Table 13, read-out: EC50
  EC50: > 20 µM
RPMI 8226 cells; [10]
  EC50: 326 nM
RPMI 8226 cells; [11]
  EC50: 327 nM
RPMI 8226 cells; Table 13, RPMI 8226
  EC50: 328 nM
MDA-MB-231 cells; Table 13, read-out: EC50
  EC50: 1.04 µM
[5]
  EC50: 45 nM
[6]
  inhibit the trypsin-like activity of the 20S proteasome: able to inhibit

## CC(=O)O[C@H]1C(=O)[C@@]2(C)[C@H]([C@H](OC(=O)c3ccccc3)[C@]3(O)C[C@H](OC(=O)[C@H](O)[C@@H](NC(=O)c4ccccc4)c4ccccc4)C(C)=C1C3(C)C)[C@]1(OC(C)=O)CO[C@@H]1C[C@@H]2O [Paclitaxel, reference compound]
MES-SA cells
  % cytotoxicity, mean ± SD: 63 ± 7%
MES-SA cells; Homo sapiens, MES-SA, read-out: EC50 (nM) MES-SA, Table 16
  EC50: 5.6 nM
MES-SA cells; Homo sapiens, MES-SA, read-out: EC50 (nM), mean, Table 7, MES-SA
  EC50: 5 ± 2 nM
MES-SA cells; read-out: EC50 (nM) MES-SA, Table 16
  EC50: 4.6 nM
MES-SA/Dx5 cells; Homo sapiens, MES-SA/Dx5, read-out: EC50 (nM), mean ± SD, Table 7, MES-SA/Dx5
  EC50: 2040 ± 150 nM
MES-SA/Dx5 cells; Table 16, ratio of EC50 values (MES-SA/Dx5:MES-SA)
  Fold change: 798 fold

## C[C@@]12OC(=O)[C@]1([C@@H](O)[C@H]1CCC[C@H](Cl)[C@H]1O)NC(=O)[C@@H]2CCCl [Formula IV-3C]
U266 cells; [8]
  EC50: 8020 nM
[1]; [9]
  EC50: 7.8 µM
[2]
  EC50: > 20 µM
RPMI 8226 cells; [11]
  EC50: > 20000 nM
[5]
  EC50: > 330 nM

## CC12OC(=O)C1(C(=O)C1CCCCC1)NC(=O)C2CCCl (stereo not drawn) [Formula II-8C]
U266 cells; [8]
  EC50: > 20000 nM
RPMI 8226 cells; [11]
  EC50: > 20000 nM

## CCC(=O)OCC[C@H]1C(=O)N[C@@]2([C@@H](O)[C@@H]3C=CCCC3)C(=O)O[C@@]12C [Formula II-22]
[1]; [9]
  EC50: 0.005 µM
[2]
  EC50: 1.3 µM
[3]
  luciferase activity upon TNF-α stimulation: dose-dependent decrease
[4]
  EC50: 0.308 µM
[6]
  inhibit the trypsin-like activity of the 20S proteasome: able to inhibit

## CC[C@@]12OC(=O)[C@]1([C@@H](O)[C@@H]1C=CCCC1)NC(=O)[C@@H]2CCCl [Formula II-24C]
[1]; [9]
  EC50: 2.2 µM
[2]
  EC50: > 20 µM
[3]
  luciferase activity upon TNF-α stimulation: dose-dependent decrease
[4]
  EC50: 3.2 µM
[6]
  inhibit the trypsin-like activity of the 20S proteasome: able to inhibit

## C[C@@]12OC(=O)[C@]1([C@@H](O)[C@@H]1C=CCCC1)NC(=O)[C@@H]2CCI [Formula II-19]
U266 cells; [7]
  EC50: 3.2 nM
U266 cells; [8]
  EC50: 3.3 nM
U266 cells; Table 13, U266
  EC50: 3.4 nM
[1]; [9]
  EC50: 0.003 µM
PC-3 cells
  EC50: 0.027 µM
[2]
  EC50: 0.573 µM
[3]
  luciferase activity upon TNF-α stimulation: dose-dependent decrease
[4]
  EC50: 0.013 µM
HT-29 cells
  EC50: 0.013 µM
NCI-H292 cells; NCI-H292, Table 13
  EC50: 0.031 µM
RPMI 8226 cells; [10]
  EC50: 5.9 nM
RPMI 8226 cells; [11]
  EC50: 6.5 nM
RPMI 8226 cells; Table 13, RPMI 8226
  EC50: 7.1 nM
MDA-MB-231 cells
  EC50: 0.017 µM
[6]
  inhibit the trypsin-like activity of the 20S proteasome: able to inhibit

## CC12OC(=O)C1(C(=O)C1C=CCCC1)NC(=O)C2CCCl (stereo not drawn) [Formula II-13C]
U266 cells; [8]
  EC50: > 20000 nM
[1]; [9]
  EC50: 8.2 µM
[2]
  EC50: > 20 µM
[4]
  EC50: 10.7 µM
RPMI 8226 cells; [11]
  EC50: > 20000 nM
[5]
  EC50: > 330 nM
[6]
  inhibit the trypsin-like activity of the 20S proteasome: able to inhibit

## C[C@H]1C(=O)N[C@@]2([C@@H](O)[C@@H]3C=CCCC3)C(=O)O[C@@]12C [Formula II-20]
U266 cells; [8]
  EC50: 3810 nM
[1]; [9]
  EC50: 0.005 µM
[2]
  EC50: 1.4 µM
[3]
  luciferase activity upon TNF-α stimulation: dose-dependent decrease
[4]
  EC50: 0.318 µM
RPMI 8226 cells; [11]
  EC50: 10500 nM
[6]
  inhibit the trypsin-like activity of the 20S proteasome: able to inhibit

## C[C@@]12OC(=O)[C@]1([C@@H](O)[C@@H]1C=CCCC1)NC(=O)[C@@H]2CCO [Formula II-21]
[1]; [9]
  EC50: 0.007 µM
[2]
  EC50: 2.6 µM
[3]
  luciferase activity upon TNF-α stimulation: dose-dependent decrease
[4]
  EC50: 0.72 µM
[6]
  inhibit the trypsin-like activity of the 20S proteasome: able to inhibit
